What was measured:
COX-2 = biological target: T1, COX-2 (Homo sapiens, UniProt P35354); experiment: COX Inhibitor Screening Assay Kit, COX-2 inhibition; format: biochemical; conditions: for percentage of enzyme inhibition, COX-2: CDXs 20 µmol/L, mean ± standard deviation, triplicate in two independent days
T1 construct: purchased Cayman Chemical
T1 sequence (P35354 18-604): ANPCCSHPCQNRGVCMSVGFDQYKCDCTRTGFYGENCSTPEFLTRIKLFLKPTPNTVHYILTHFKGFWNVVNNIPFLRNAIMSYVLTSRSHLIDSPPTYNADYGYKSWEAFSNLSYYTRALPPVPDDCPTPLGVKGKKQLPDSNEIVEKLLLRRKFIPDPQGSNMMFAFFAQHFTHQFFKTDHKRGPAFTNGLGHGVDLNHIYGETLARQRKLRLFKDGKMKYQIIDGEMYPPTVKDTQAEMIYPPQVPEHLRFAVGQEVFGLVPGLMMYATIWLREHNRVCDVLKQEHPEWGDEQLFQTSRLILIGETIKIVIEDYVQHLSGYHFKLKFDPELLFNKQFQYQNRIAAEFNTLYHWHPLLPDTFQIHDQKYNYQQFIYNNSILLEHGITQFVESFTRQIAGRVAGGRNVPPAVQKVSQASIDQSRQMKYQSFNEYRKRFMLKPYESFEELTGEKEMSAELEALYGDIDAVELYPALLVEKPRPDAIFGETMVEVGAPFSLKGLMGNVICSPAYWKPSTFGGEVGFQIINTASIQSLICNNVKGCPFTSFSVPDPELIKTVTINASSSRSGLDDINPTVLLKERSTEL
Experimental: (§1) The effect of CDXs previously obtained in our group as inhibitors of membrane located enzymes that might be involved in inflammatory processes, namely COX-1 and COX-2, was evaluated. Three enantiomeric pairs of CDXs were chosen to study the inhibitory effect of both enantiomers of each pair face to biological targets in order to evaluate potency and enantioselectivity. The effect on COXs activity was studied by spectrofluorimetry using a commercial kit measuring the peroxidation activity of COXs. The kit includes isoenzyme-specific inhibitors for distinguishing COX-1 from COX-2 activities.
(§2) The evaluation of the inhibition of COX-1 and COX-2 by CDXs was conducted using the commercially available COX (ovine/human) Inhibitor Screening Assay Kit (Cayman Chemical, Michigan, MI, USA). Briefly, the assay implies an enzymatic immunoassay based on the competition between prostaglandins (PGs) and a PG-acetylcholinesterase (AChE) conjugate (PG tracer), which is then evaluated by the addition of Ellman’s reagent. All the solutions required for the experiment were prepared according to the manufacturer’s instructions. Each compound was analysed in two independent days, in triplicate. CDX working solutions were prepared in DMSO to a final concentration of 20 µM. […] Absorbance measurements at 412 nm were performed in a Synergy HT microplate reader (Bio-Tek Instruments, Winooski, VT, USA) operated with Gen5 software (Bio-Tek Instruments).

COX-1 = biological target: T2, COX-1 (Ovis aries, UniProt P05979); experiment: COX Inhibitor Screening Assay Kit, COX-1 inhibition; format: biochemical, ovine; conditions: CDXs 20 µmol/L; mean ± standard deviation, triplicate in two independent days
T2 construct: purchased Cayman Chemical
T2 sequence (P05979 25-600): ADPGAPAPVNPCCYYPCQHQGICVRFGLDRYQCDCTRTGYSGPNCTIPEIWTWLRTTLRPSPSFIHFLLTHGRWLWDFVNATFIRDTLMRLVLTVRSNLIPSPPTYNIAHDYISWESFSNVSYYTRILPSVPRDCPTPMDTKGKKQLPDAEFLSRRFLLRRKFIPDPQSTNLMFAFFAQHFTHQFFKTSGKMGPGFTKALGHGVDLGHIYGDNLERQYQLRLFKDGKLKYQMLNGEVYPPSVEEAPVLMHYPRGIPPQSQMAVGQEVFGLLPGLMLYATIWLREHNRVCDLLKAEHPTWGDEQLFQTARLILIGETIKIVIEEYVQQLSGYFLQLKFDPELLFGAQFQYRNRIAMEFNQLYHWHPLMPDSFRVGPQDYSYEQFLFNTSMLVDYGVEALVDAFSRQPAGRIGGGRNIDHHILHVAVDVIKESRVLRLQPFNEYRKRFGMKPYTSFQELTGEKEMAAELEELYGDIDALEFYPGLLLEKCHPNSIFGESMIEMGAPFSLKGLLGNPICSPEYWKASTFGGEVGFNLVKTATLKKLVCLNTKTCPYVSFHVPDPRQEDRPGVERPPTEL
Experimental: as §1, §2

HSA = biological target: T3, HSA (Homo sapiens, UniProt P02768); experiment: Interaction with human serum albumin by fluorescence quenching; format: binding; conditions: for Ymax, maximum percentage of HSA fluorescence quenching / Kd: HSA 2 µM, pH 7.4, 25 °C; for Ymax, maximum percentage of HSA fluorescence quenching / Kd / ∆G Binding: mean ± standard deviation of triplicate runs; for Kd: read-out: Kd, dissociation constant of CDX-HSA; for ∆G Binding: HSA binding
T3 construct: purchased Sigma-Aldrich
Experimental: Evaluation of the binding of CDXs to HSA was based on the quenching of HSA intrinsic fluorescence. Phosphate buffer consisting of 7.5 mM Na2HPO4, 1.5 mM KH2PO4 and 140 mM NaCl (pH 7.4) was used in the preparation of CDX solutions. Solutions of HSA fraction V (Sigma-Aldrich, St. Louis, MO, USA) were prepared in water. Briefly, 500 µL of HSA (fixed final concentration 2 µM), increasing volumes of drug solution (n = 13, 0–200 µM) and phosphate buffer solution (pH 7.4) were mixed to a final volume of 1500 µL. The corresponding blank solutions were identically prepared and analysed in the absence of the drug. Fluorescence emission spectra were recorded in the range of 300–450 nm upon excitation at 295 nm. Excitation spectra were also recorded between 220 and 310 nm with emission set at 330 nm. For individual measurements, excitation and emission wavelength were set at 295 nm and 330 nm, respectively. For each measurement, fluorescence emission was automatically acquired during 180 s (5 nm bandwidth). For all compounds, UV-vis absorption spectra (200–500 nm) were recorded. These measurements were used to correct the fluorescence intensity values due to inner filter effects at the excitation wavelength. All experiments were performed at room temperature (25 ± 1 °C). Fluorescence and absorbance measurement were performed in a LS-50B spectrometer (Perkin Elmer, Waltham, MA, USA) and a V-660 spectrophotometer (Jasco, Easton, MD, USA) respectively.
HSA-CDX binding parameters were calculated using the Origin 8.5.1 software (8.5.1, Northampton, MA, USA). The fitting of the experimental values was made according to the Langmuir binding equation (Equation (1)) to calculate HSA binding parameters: (1) [HSA−CDX]=[HSA]/1+ Kd/[CDX] where [HSA], [CDX] and [HSA-CDX] are given in μM and Kd corresponds to the dissociation constant of HSA-CDX complexes.
In terms of fluorescence quenching mediated by the compound, the previous Langmuir isotherm can be rewritten as follows (Equation (2)):(2) %quenching=ymax^n/1+ Kd/[CDX] where ymax corresponds to the highest percentage of quenching induced by a given compound and n accounts for the number of biding sites of the enzyme to the CDX. Finally, free Gibbs energy (ΔG) was also determined for all the interactions.

T3 sequence (P02768 25-609): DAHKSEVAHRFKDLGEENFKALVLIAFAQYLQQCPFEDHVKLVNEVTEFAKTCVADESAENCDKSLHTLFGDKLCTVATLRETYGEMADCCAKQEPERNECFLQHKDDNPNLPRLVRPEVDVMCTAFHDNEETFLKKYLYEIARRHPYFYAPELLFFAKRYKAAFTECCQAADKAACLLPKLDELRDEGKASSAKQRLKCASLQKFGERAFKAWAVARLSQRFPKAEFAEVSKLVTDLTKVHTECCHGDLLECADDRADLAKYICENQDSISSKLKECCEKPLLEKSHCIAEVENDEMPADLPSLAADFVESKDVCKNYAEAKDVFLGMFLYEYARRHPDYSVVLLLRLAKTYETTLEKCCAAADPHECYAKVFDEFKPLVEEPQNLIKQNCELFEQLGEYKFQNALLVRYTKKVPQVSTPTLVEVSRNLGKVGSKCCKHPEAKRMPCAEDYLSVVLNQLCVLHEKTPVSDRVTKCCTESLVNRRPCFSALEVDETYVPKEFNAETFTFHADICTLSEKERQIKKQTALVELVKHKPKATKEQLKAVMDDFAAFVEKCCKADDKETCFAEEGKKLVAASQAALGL

| SMILES | percentage of enzyme inhibition, COX-2 (COX-2) | percentage of enzyme inhibition, COX-1 (COX-1) | Ymax, maximum percentage of HSA fluorescence quenching (HSA) | Kd (HSA) | enzyme-type selectivity COX-2 vs COX-1 (COX-2; paired t-test, p < 0.05) | ∆G Binding (HSA) | difference in HSA binding affinity between (S)- and (R)-enantiomers (HSA; (S)-enantiomer higher affinity than (R)-enantiomer) |
| --- | --- | --- | --- | --- | --- | --- | --- |
| COc1ccc2c(=O)c3cc(C(=O)N[C@H](CO)C(C)C)ccc3oc2c1 [(S)-(−)-CDX2] | 85.7 ± 4.5% | 82.9 ± 5.2% | 107.4 ± 5.4% | 24.7 ± 1.1 µM |  |  |  |
| COc1ccc2c(=O)c3cc(C(=O)N[C@@H](CO)c4ccccc4)ccc3oc2c1 [(R)-(+)-CDX1] | 84.7 ± 5.7% | 79.6 ± 5.0% | 109.6 ± 1.6% | 61.8 ± 6.5 µM |  |  |  |
| COc1ccc2c(=O)c3cc(C(=O)N[C@@H](CO)C(C)C)ccc3oc2c1 [(R)-(+)-CDX2] | 73.2 ± 0.4% | 66.8 ± 1.6% | 108.2 ± 0.2% | 29.2 ± 0.9 µM | more active at inhibiting COX-2 than COX-1 | -2.0 ± 0.1 kcal/mol |  |
| COc1ccc2c(=O)c3cc(C(=O)N[C@H](CO)c4ccccc4)ccc3oc2c1 [(S)-(−)-CDX1] | 80.1 ± 12.8% | 87.6 ± 2.1% | 105.3 ± 0.4% | 23.6 ± 0.8 µM |  |  |  |
| COc1ccc2c(=O)c3cc(C(=O)N[C@@H](C)CO)ccc3oc2c1 [(S)-(+)-CDX3] | 93.4 ± 11.4% | 91.7 ± 10.7% | 116.2 ± 0.6% | 31.4 ± 2 µM |  | -2.0 ± 0.2 kcal/mol |  |
| COc1ccc2c(=O)c3cc(C(=O)NC(CO)c4ccccc4)ccc3oc2c1 (stereo not shown) [CDX1] |  |  |  |  |  |  | ca. 2.6 fold |
| COc1ccc2c(=O)c3cc(C(=O)N[C@H](C)CO)ccc3oc2c1 [(R)-(−)-CDX3] | 75.1 ± 7.2% | 75.2 ± 9.0% | 113.2 ± 1.4% | 26.4 ± 1.2 µM |  |  |  |

From publication PMC5490407, “Chiral Derivatives of Xanthones: Investigation of the Effect of Enantioselectivity on Inhibition of Cyclooxygenases (COX-1 and COX-2) and Binding Interaction with Human Serum Albumin” (Pharmaceuticals, 2017)
